Reference: patent US5164295A, “Method for identifying amyloid protein-extracellular matrix protein affinity altering compounds” (The Upjohn Company, priority 1991, dated 1992)

Legend:
[1] = molecular target: T1, HSPG binding to AAP695 /s (Homo sapiens, UniProt P05067); assay: Effect of test compounds on intact HSPG binding to immobilized AAP695 /s (ELISA); conditions: for HSPG binding, % of control: AAP695
T1 construct: maintained the entire extracellular portion of the AAP; made in house; host or cells: insect cells (recombinant baculovirus)
Experimental: (§1) The assay comprised immobilizing AAP695 /s which was then exposed to free HSPG in the absence or presence of test compounds. Other aspects of the assay included exposing free HSPG to either immobilized AAP751 /s, or AAP770 /s, each in the absence or presence of test compounds. The assay was also performed with fibronectin as the immobilized protein in order to provide a positive control. In each case, a series of concentrations of HSPG and test compounds was used. Additionally, to determine whether or not the carbohydrate moiety of HSPG was involved in the binding to immobilized components, the carbohydrate moiety of HSPG was removed and assays were performed using the carbohydrate-free HSPG core protein. The test compounds used in experiments described here include heparin, dextran sulfate, chondroitin sulfate, dermatan sulfate, fibronectin, gelatin, bovine serum albumin (BSA), Ca^++ (CaCl2), Mg^++ (MgCl2), Mn^++ (MnCl2), Co^++ (Co(NO3)2), and Zn^++ (ZnCl2).
(§2) The assay used in studying the interaction between HSPG and protein ligands was an ELISA technique. Briefly, polystyrene micro-titer plates (Linbro, Flow Lab Inc.) were coated with a 100 μl solution, containing 1 μg/ml of the protein of interest (one of the three forms of AAP or fibronectin) in 20 mM NaHCO3 buffer pH 9.6. After incubation overnight at 4° C., the plates were rinsed with 0.15M NaCl, 20 mM Tris-Cl pH 7.5 (TBS). The plates were then incubated with 150 μl of 1% BSA in TBS for 2 hours at 37° C. to block the residual hydrophobic surface on the wells. After rinsing with TBS containing 0.05% (w/v) Tween 20 (TBS-Tween), 100 μl of various concentrations of HSPG in TBS-Tween were added. The plates were left overnight at 4° C., to permit maximum binding of HSPG to the coated proteins. The plates were then washed extensively and incubated for 2 hours at 37° C., with 100 μl of anti-HSPG diluted in TBS-Tween containing 0.1% BSA. The plates were washed again and incubated for another 2 hours with 100 μl of goat anti-rabbit-IgG conjugated with alkaline phosphatase (1:2000 dilution) in TBS-Tween containing BSA as above. Finally, after further washing, the bound antibodies were detected by adding an alkaline phosphatase substrate solution (100 μl) containing 2 mg/ml p-nitrophenyl phosphate, 0.1 mM ZnCl2, 1 mM MgCl2 and 100 mM glycine pH 10. The plates were left at room temperature for 15-120 minutes depending on the protein tested. The enzyme reaction was stopped by addition of 50 μl of 2M NaOH. The absorbance of the released p-nitrophenol was measured at 405 nm with a Titertek Multiscan/MCC 340 (Flow Lab. Ltd.). The amounts of HSPG bound were determined by the net OD405 after substracting the OD from the blank wells in which the HSPG incubation step was omitted. When the actual amounts of HSPG bound were to be calculated, a set of standards (0.05-50 ng/well) of HSPG in NaHCO3 buffer were pre-coated into wells on the same plates as the test proteins. The incubations proceeded as described above omitting the incubation of the HSPG solution with the HSPG standard coated wells. The actual amounts of HSPG bound to the test proteins were calculated from the OD405 standard curve produced by the HSPG standards using a Titersoft II E.J.A. software program (Flow Lab. Ltd.).
(§3) Heparin and dextran sulfate, respectively, were each used as test compounds to determine their effect on the HSPG binding to AAP forms and fibronectin. Various concentrations of heparin or dextran sulfate were added together with a constant amount of HSPG to wells coated with AAPs for fibronectin.

[2] = tested on: HSPG binding to fibronectin; assay: Effect of test compounds on intact HSPG binding to immobilized fibronectin (ELISA); set-up: species or system bovine; conditions: for HSPG binding, % of control: fibronectin
Chain of HSPG binding to fibronectin (P07589 with tags, fused parts or gaps DEL1267-1357/DEL1723-1812 limits assumed): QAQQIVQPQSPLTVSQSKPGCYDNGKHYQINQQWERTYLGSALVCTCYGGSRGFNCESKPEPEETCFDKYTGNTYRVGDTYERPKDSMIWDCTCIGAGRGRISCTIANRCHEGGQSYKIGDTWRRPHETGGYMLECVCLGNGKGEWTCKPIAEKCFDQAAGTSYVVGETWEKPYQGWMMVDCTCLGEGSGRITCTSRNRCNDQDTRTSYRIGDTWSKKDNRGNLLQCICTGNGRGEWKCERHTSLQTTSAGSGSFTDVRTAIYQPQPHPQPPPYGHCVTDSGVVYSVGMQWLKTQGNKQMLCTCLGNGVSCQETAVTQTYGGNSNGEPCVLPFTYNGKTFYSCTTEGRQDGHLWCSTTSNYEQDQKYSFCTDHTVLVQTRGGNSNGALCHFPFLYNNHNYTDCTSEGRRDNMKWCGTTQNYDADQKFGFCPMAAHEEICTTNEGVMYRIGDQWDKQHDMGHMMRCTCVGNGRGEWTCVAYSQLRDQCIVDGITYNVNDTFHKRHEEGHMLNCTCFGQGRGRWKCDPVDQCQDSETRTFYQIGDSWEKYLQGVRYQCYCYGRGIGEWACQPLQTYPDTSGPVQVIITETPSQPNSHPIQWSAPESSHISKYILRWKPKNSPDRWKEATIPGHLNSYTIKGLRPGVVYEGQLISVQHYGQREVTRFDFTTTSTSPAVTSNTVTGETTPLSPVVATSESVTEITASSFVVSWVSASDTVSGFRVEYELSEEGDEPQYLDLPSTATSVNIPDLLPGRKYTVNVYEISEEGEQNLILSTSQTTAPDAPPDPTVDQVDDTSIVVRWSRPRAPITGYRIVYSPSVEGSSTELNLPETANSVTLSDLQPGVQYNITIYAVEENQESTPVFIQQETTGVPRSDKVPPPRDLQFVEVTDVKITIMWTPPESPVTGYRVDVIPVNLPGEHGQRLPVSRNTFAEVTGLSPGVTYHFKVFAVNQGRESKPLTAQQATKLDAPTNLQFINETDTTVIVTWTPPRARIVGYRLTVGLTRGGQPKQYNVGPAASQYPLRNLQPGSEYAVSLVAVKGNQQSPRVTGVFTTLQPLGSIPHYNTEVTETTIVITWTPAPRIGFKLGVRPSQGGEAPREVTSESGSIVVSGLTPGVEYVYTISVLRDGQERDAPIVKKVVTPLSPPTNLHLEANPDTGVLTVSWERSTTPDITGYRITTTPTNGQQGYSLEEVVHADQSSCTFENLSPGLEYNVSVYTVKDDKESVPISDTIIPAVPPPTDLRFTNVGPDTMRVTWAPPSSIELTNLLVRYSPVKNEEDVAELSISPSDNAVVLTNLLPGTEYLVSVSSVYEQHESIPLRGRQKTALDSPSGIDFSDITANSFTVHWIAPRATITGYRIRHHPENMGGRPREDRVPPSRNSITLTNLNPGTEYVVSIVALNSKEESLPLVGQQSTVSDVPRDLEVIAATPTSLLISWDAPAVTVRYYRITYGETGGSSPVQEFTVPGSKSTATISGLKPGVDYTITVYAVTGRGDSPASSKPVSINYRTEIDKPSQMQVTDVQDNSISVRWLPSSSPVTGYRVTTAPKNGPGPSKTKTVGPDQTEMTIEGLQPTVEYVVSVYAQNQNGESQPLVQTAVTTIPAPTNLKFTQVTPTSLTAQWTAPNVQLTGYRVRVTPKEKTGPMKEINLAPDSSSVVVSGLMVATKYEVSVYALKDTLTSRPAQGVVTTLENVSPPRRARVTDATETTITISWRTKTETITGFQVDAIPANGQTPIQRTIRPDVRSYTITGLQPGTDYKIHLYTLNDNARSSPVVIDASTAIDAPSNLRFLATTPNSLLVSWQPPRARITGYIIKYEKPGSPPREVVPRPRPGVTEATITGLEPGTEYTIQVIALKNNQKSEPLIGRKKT
Experimental: as §1
Fibronectin (from bovine plasma), heparin (grade II from porcine intestinal mucosa, average molecular weight=[…]), heparan sulfate, chondroitin sulfate, dextran sulfate, BSA, and alkaline phosphatase substrate were obtained from Sigma, St. Louis, Mo. Alkaline phosphatase conjugated goat anti-rabbit IgG was obtained from Boehringer-Manneheim, and heparitinase from ICN Biochemicals.
as §2, §3

[3] = molecular target: HSPG core protein binding to AAP695 /s; assay: Effect of heparin on HSPG core protein binding to immobilized AAP695 /s (ELISA); conditions: heparin 400 μg/ml
Experimental: The assay used in studying the interaction between HSPG and protein ligands was an ELISA technique. Briefly, polystyrene micro-titer plates (Linbro, Flow Lab Inc.) were coated with a 100 μl solution, containing 1 μg/ml of the protein of interest (one of the three forms of AAP or fibronectin) in 20 mM NaHCO3 buffer pH 9.6. After incubation overnight at 4° C., the plates were rinsed with 0.15M NaCl, 20 mM Tris-Cl pH 7.5 (TBS). The plates were then incubated with 150 μl of 1% BSA in TBS for 2 hours at 37° C. to block the residual hydrophobic surface on the wells. After rinsing with TBS containing 0.05% (w/v) Tween 20 (TBS-Tween), 100 μl of various concentrations of HSPG in TBS-Tween were added. […] Finally, after further washing, the bound antibodies were detected by adding an alkaline phosphatase substrate solution (100 μl) containing 2 mg/ml p-nitrophenyl phosphate, 0.1 mM ZnCl2, 1 mM MgCl2 and 100 mM glycine pH 10. […] The absorbance of the released p-nitrophenol was measured at 405 nm with a Titertek Multiscan/MCC 340 (Flow Lab. Ltd.). The amounts of HSPG bound were determined by the net OD405 after substracting the OD from the blank wells in which the HSPG incubation step was omitted. When the actual amounts of HSPG bound were to be calculated, a set of standards (0.05-50 ng/well) of HSPG in NaHCO3 buffer were pre-coated into wells on the same plates as the test proteins. […]

[4] = molecular target: T2, HSPG binding to AAP751 /s (Homo sapiens, UniProt P05067); assay: Effect of test compounds on intact HSPG binding to immobilized AAP751 /s (ELISA); conditions: for HSPG binding, % of control: AAP751
T2 construct: maintained the entire extracellular portion of the AAP; made in house; host or cells: insect cells (recombinant baculovirus)
Experimental: as §1, §2, §3

[5] = test compound 500 μg/ml (Table II)

heparin
mode of inhibition of HSPG binding to AAP695 /s [1]: probably competitive
Activity: binding of intact HSPG, percentage ± SD of control ([1]; AAP695 /S, addition 500 μg/ml, HSPG 2 μg/ml): 10.2 ± 5.2%
HSPG binding, % of control ([1]; test compound 31.2 μg/ml): 29%
HSPG binding, % of control ([1]; test compound 62.5 μg/ml): 26%
HSPG binding, % of control ([1]; test compound 125 μg/ml): 16%
HSPG binding, % of control ([1]; test compound 250 μg/ml): 10%
HSPG binding, % of control [1, 5]: 7%
HSPG binding, % of control ([1]; test compound 1000 μg/ml): 3%
HSPG binding, % of control ([1]; test compound 2000 μg/ml): 2%
HSPG binding, % of control ([1]; test compound 4000 μg/ml): 1%
Ki ([1]; calculated from Kdapp = Kdcon (1+[I]/Ki), heparin 400 μg/ml, AAP695 /s): ~5.5 µM
factor by which HSPG affinity for AAP-695/s is reduced ([1]; heparin 400 μg/ml): 5-10
increase of Kd of intact HSPG for AAP695 /s in presence of heparin ([1]; heparin 400 μg/ml): approximately four-fold
inhibition of HSPG binding to AAP695 /s ([1]; test compound 62.5 μg/ml): 75%
mode of inhibition of HSPG binding to fibronectin [2]: noncompetitive
Activity: binding of intact HSPG, percentage ± SD of control ([2]; Fibronectin, addition 500 μg/ml, HSPG 2 μg/ml): 71.7 ± 4.9%
HSPG binding, % of control ([2]; test compound 31.2 μg/ml): 93%
HSPG binding, % of control ([2]; test compound 62.5 μg/ml): 91%
HSPG binding, % of control ([2]; test compound 125 μg/ml): 73%
HSPG binding, % of control ([2]; test compound 250 μg/ml): 85%
HSPG binding, % of control [2, 5]: 79%
HSPG binding, % of control ([2]; test compound 1000 μg/ml): 79%
HSPG binding, % of control ([2]; test compound 2000 μg/ml): 77%
HSPG binding, % of control ([2]; test compound 4000 μg/ml): 74%
Ki ([3]; calculated from Kdapp = Kdcon (1+[I]/Ki), AAP695 /s): ~1.6 µM
increase of Kd of HSPG core protein for AAP695 /s in presence of heparin [3]: approximately ten-fold
mode of inhibition of HSPG binding to AAP751 /s [4]: noncompetitive
Activity: binding of intact HSPG, percentage ± SD of control ([4]; AAP751 /S, addition 500 μg/ml, HSPG 2 μg/ml): 69 ± 12%
HSPG binding, % of control ([4]; test compound 31.2 μg/ml): 89%
HSPG binding, % of control ([4]; test compound 62.5 μg/ml): 75%
HSPG binding, % of control ([4]; test compound 125 μg/ml): 84%
HSPG binding, % of control ([4]; test compound 250 μg/ml): 82%
HSPG binding, % of control [4, 5]: 54%
HSPG binding, % of control ([4]; test compound 1000 μg/ml): 60%
HSPG binding, % of control ([4]; test compound 2000 μg/ml): 53%
HSPG binding, % of control ([4]; test compound 4000 μg/ml): 58%
effect of heparin on Kd of HSPG when using AAP751 /s ([4]; heparin 400 μg/ml, intact HSPG or core protein): No such effect
